These results are taken from PubChem BioAssay (NCI).

Among the test systems are SK-OV-3 ovarian; KM12 colon; OVCAR-8 ovarian; COLO 205 colon; RPMI-8226 leukemia; T-47D breast; NCI-H522 lung; MCF7 breast; UO-31 renal; HCC-2998 colon.
Holding throughout (experiment): inhibition of tumour cell growth, NCI panel, 48 h

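Following 48 hours of exposure in 96-well plates, responses at five concentrations were used to interpolate endpoints linearly. GI50: concentration for 50% inhibition of growth. TGI is the concentration that stops growth completely.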

As for `CNC(=O)c1cc2c(Oc3ccc(NC(=S)NC(=O)Cc4ccccc4)cc3F)ccnc2cc1OC`, the GI50 in the assay with SK-OV-3 ovarian was 5.24 µM; in the assay with KM12 colon, 3.91 µM; in the assay with OVCAR-8 ovarian it was over 100 µM; with COLO 205 colon, 5.37 µM; in the assay with RPMI-8226 leukemia, over 28.3 µM; in the assay on T-47D breast, 2.8 µM. The GI50 is 10 µM with NCI-H522 lung, over 100 µM with MCF7 breast, 2.56 µM with UO-31 renal and over 100 µM in the assay with HCC-2998 colon. Moreover, the TGI with SK-OV-3 ovarian, in the assay on KM12 colon, in the assay on OVCAR-8 ovarian, in the assay on COLO 205 colon, in the assay on RPMI-8226 leukemia and in the assay with T-47D breast was over 100 µM each time. Further, the TGI in the assay on NCI-H522 lung, in the assay on MCF7 breast, in the assay with UO-31 renal and with HCC-2998 colon was over 100 µM each time.
As for `Cc1ncc(-c2ccnc(Nc3ccc(S(C)(=O)=O)cc3)n2)n1C(C)C`, the GI50 in the assay with SK-OV-3 ovarian is 4.16 µM; with KM12 colon, 0.527 µM; in the assay with OVCAR-8 ovarian, 1.33 µM; with COLO 205 colon, 0.532 µM; in the assay on RPMI-8226 leukemia, 1.57 µM; in the assay on T-47D breast, 1.38 µM. Also, the GI50 in the assay with NCI-H522 lung was 1.52 µM; in the assay on MCF7 breast, 0.523 µM; in the assay on UO-31 renal it was 1 µM; in the assay on HCC-2998 colon it was 1.35 µM. The TGI with SK-OV-3 ovarian is over 10 µM; in the assay on KM12 colon it was 2.33 µM; in the assay on OVCAR-8 ovarian it was over 10 µM; in the assay on COLO 205 colon, 2.37 µM; in the assay on RPMI-8226 leukemia, 6.18 µM; in the assay on T-47D breast, over 8.75 µM. The TGI was 5.29 µM in the assay with NCI-H522 lung, over 10 µM in the assay on MCF7 breast, over 10 µM with UO-31 renal and 5.59 µM with HCC-2998 colon.
